Paper PMC9500858 (International Journal of Molecular Sciences, 2022)

Key:
[1] = Thermal degradation and freeze-thaw in Mili-Q water, LC-MS; assay type: physicochemical; details: 50 μg/mL in Mili-Q water; for Concentration Found (Mean ± SD) / Recovery: n = 3
Description: (§1) The separation was carried out using Kinetex XB-C18 column (150 mm × 2.1 mm × 1.7 μm; Phenomenex, Torrance, CA, USA). The mobile phase consisted of A: 0.1% formic acid in deionized water and B: 0.1% formic acid in acetonitrile (MeCN). The two-step gradient was used from 5% B to 50% B in 13 min and from 50% B to 65% B up to 20 min. The column temperature was maintained at 25 °C with a flow rate equal to 0.3 mL/min. The eluate was introduced directly to the mass spectrometer. The ion trap setting was as follows: capillary voltage 4500 V, endplate offset 500 V, nebulizer pressure 40 psi, drying gas temperature 145 °C and gas flow rate 9 L/min. The instrument used a smart parameter setting (SPS) fixed at 1000 amu. The scan range was from m/z = 70 to m/z = 2200. Compounds were analyzed in […] ion mode.
(§2) Before LC analysis, the ionization of each quantified compound in the positive ion mode was optimized by the direct injection of standard (50 µg/mL in 0.1% HCOOH in H2O; 0.3 mL/min) into the ESI source of the mass spectrometer. The intensity of the most abundant ion for each compound was monitored in order to choose optimal conditions. The quantification of investigated compounds was performed using the dominating ion (for both PK20 and [Ile^9] PK20 the ion at m/z =1357.40 ± 0.3, retention time ca. 11.2 min).
(§3) The calibration curves were plotted as the amount of injected compound (ng) vs. detector response (peak area) using extracted ion chromatograms (EIC) for the characteristic ion for each compound. The linear range for each quantified compound was between 5 and 200 ng per injection. Five amount levels were used for the plotting of curves. Samples at each level were analyzed in triplicate.
(§4) The stability of PK20 and [Ile^9]PK20 was tested under acidic, basic, oxidative, heat, freeze and ultraviolet light conditions. All experiments were conducted in triplicate (n = 3). The comparison of peak areas in degradative and non-degradative conditions for both compounds can be observed in Figure 3 and Figure 4.
Solutions (50 μg/mL) of both hybrid peptides were prepared in Mili-Q water, and aliquots were kept at room temperature 22 °C, 37 °C and −80 °C for 24 h and at 80 °C for 12 h. One aliquot was also subjected to two freeze–thaw cycles with the sample first frozen at −80°C for 24 h, defrosted under running tap water at room temperature for 2 h and second frozen at −20°C for 24 h and defrosted under running tap water at room temperature for 2 h. Then, the solutions of PK20 and [Ile^9]PK20 were diluted with an equal volume of 0.2% formic acid in acetonitrile and analyzed with LC-MS.

[2] = Photolytic (UV) degradation in Mili-Q water, LC-MS; assay type: physicochemical; details: 365 nm UV light, 7 h, 50 μg/mL in Mili-Q water, clear plastic vials, n = 3
Description: as §1, §2, §3, §4
PK20 and [Ile^9]PK20 solution (50 μg/mL) was prepared in Mili-Q water, and aliquots were kept in clear plastic vials exposed to UV light (366 nm, Camag, UV Lamp 4, Camag, Switzerland) for 7 h. After the incubation, the drug solution was diluted with an equal volume of 0.2% formic acid in acetonitrile and analyzed with LC-MS.

[3] = Acid hydrolysis (1 M HCl) forced degradation, LC-MS; assay type: physicochemical; details: for Recovery / Concentration Found (Mean ± SD): acidic degradation, 50 μg/mL in 1 M HCl, n = 3; for Concentration Found (Mean ± SD): neutralised with 1 M NaOH; for half-life in 1M HCl: calculated half-life, acidic conditions, 50 μg/mL, temperature not given for the half-life
Description: as §1, §2, §3, §4
(§5) Drug solution (50 μg/mL) was prepared in HCl (1 M) or NaOH (1 M). Aliquots were kept at a temperature of 80 °C (LBK type water bath, SWL Bytom, Poland) for 12 h and 37°C (medical water bath, LW102, Auritronic, Krakow, Poland) for 24 h. At a specific time-point, acidic and basic solutions of both PK20 and [Ile^9]PK20 were neutralized with an equal volume of 1 M NaOH or 1 M HCl, respectively, and diluted with an equal volume of 0.2% formic acid in acetonitrile and analyzed using LC-MS.

[4] = Base hydrolysis (1 M NaOH) forced degradation, LC-MS; assay type: physicochemical; details: for Recovery / Concentration Found (Mean ± SD): basic degradation, 50 μg/mL in 1 M NaOH, n = 3; for Concentration Found (Mean ± SD): neutralised with 1 M HCl; for half-life (t1/2) in 1M NaOH: calculated half-life, alkaline conditions, 50 μg/mL, temperature not given for the half-life
Description: as §1, §2, §3, §4, §5

[5] = target: mu opioid receptor; details: intrinsic activity of the receptor; read-out: EC50 (potency) at mu opioid receptor; cited from earlier work
Text: Since hybrid compounds have gained attention due to their potent multifunctional behavior with a more favorable profile in terms of possible side effects, much work devoted to such compounds can be found. PK20 and [Ile^9]PK20, which are hybrid structures encompassing both opioid and neurotensin pharmacophores, although modified, were designed and synthesized to reduce pain.

[6] = Oxidative degradation (30% H2O2), LC-MS; assay type: physicochemical; details: n = 3
Description: as §1, §2, §3, §4
PK20 and [Ile^9]PK20 solution (50 μg/mL) was prepared in 30% (v/v) hydrogen peroxide (H2O2). Aliquots were incubated at 37 °C for 24 h and 80 °C for 12 h. After the incubation, each drug solution was diluted with an equal volume of 0.2% formic acid in acetonitrile and analyzed with LC-MS.

[7] = system: NTS1 neurotensin receptor; details: replacement of Tle with Ile; cited from earlier work
Text: (§6) Tle and Ile are structural isomers belonging to the same class of leucines with the same atomic composition (C6H13NO2) but they have different chemical structures, including different bond coordination and stereochemistry (Figure 1). Thus, their presence in the peptide structure led to diverse results. In fact, incorporation of Ile into the 9th position of the peptide chain caused a decrease in the analgesic activity in vivo when compared with PK20, having a tert-leucine (Tle9) in the corresponding position. Nonetheless, [Ile^9]PK20 produced the maximal pain-relieving effect, although wi ...

[8] = system: mu opioid receptor; details: replacement of Tle with Ile; cited from earlier work
Text: as §6

[9] = system: CA1 region of the hippocampus; assay: Excitotoxic injury in organotypic hippocampal slice cultures subjected to NMDA; assay type: cell-based, Rat; details: administered simultaneously with NMDA, data not published
[10] = thermal degradation, 37 °C, 24 h
[11] = thermal degradation, 80 °C, 12 h
[12] = thermal degradation, room temperature (22 °C), 24 h
[13] = thermal degradation, −80 °C, 24 h
[14] = thermal, temperatures ranging from 22 °C through 37 °C to +80 °C
[15] = two freeze–thaw cycles (24 h −80 °C, 2 h 22 °C, 24 h −20 °C)
[16] = 37 °C, 24 h, LC-MS (EIC m/z 1357.40)
[17] = 50 μg/mL in 30% (v/v) H2O2, 37 °C, 24 h
[18] = 50 μg/mL in 30% (v/v) H2O2, 80 °C, 12 h

Row | Substance | Concentration Found (Mean ± SD) [1, 10] [ng/mL] | Recovery [1, 10] [%] | Concentration Found (Mean ± SD) [1, 11] [ng/mL] | Recovery [1, 11] [%] | Concentration Found (Mean ± SD) [1, 12] [ng/mL] | Recovery [1, 12] [%] | Concentration Found (Mean ± SD) [1, 13] [ng/mL] | Recovery [1, 13] [%] | Concentration Found (Mean ± SD) [1, 15] [ng/mL] | Concentration Found (Mean ± SD) [2] [ng/mL] | Recovery [2] [%] | Recovery ([3]; 37 °C, 24 h, LC-MS) [%] | Concentration Found (Mean ± SD) [3, 16] [ng/mL] | Recovery ([3]; 80 °C, 12 h, LC-MS) [%] | Concentration Found (Mean ± SD) ([3]; 80 °C, 12 h, LC-MS) [ng/mL] | half-life in 1M HCl ([3]; LC-MS) [h] | Recovery ([4]; 37 °C, 24 h) [%] | Concentration Found (Mean ± SD) ([4]; 37 °C, 24 h) [ng/mL] | Recovery ([4]; 80 °C, 12 h) [%] | Concentration Found (Mean ± SD) ([4]; 80 °C, 12 h) [ng/mL] | further results
1 | HELM PEPTIDE1{[Cc1cc(O)cc(C)c1C[C@H](N)C(=O)[*:2]].[dK].F.F.K.K.P.F.[CC(C)(C)[C@H](N[*:1])C(=O)[*:2]].L}$$$$V2.0 (N-terminus assumed; SMILES Cc1cc(O)cc(C)c1C[C@H](N)C(=O)N[C@H](CCCCN)C(=O)N[C@@H](Cc1ccccc1)C(=O)N[C@@H](Cc1ccccc1)C(=O)N[C@@H](CCCCN)C(=O)N[C@@H](CCCCN)C(=O)N1CCC[C@H]1C(=O)N[C@@H](Cc1ccccc1)C(=O)N[C@H](C(=O)N[C@@H](CC(C)C)C(=O)O)C(C)(C)C) [PK20, opioid–neurotensin hybrid peptide] | 49980 ± 350 | 99.97 | 48670 ± 2740 | 97.34 | 51360 ± 1640 | 102.72 | 51900 ± 200 | 103.80 | 43250 ± 9420 | 18720 ± 940 | 37.44 | 78.19 | 39090 ± 6330 | 54.43 | 27220 ± 2750 | 204.4 | 30.32 | 15160 ± 340 | 11.44 | 5710 ± 1670 | remaining concentration of the peptide [1, 14]: approximately 50 μg/mL; remaining peptide as percentage [1, 14]: ~100%; Recovery [1, 15]: 86.50%; half-life (t1/2) in 1M NaOH [4]: 11.36 h; EC50 [5]: 79 nM; Concentration Found (Mean ± SD) [6, 17]: 30520 ± 490 ng/mL; Recovery [6, 17]: 61.04%; Concentration Found (Mean ± SD) [6, 18]: 9800 ± 200 ng/mL; Recovery [6, 18]: 19.60%
2 | HELM PEPTIDE1{[Cc1cc(O)cc(C)c1C[C@H](N)C(=O)[*:2]].[dK].F.F.K.K.P.F.I.L}$$$$V2.0 (N-terminus assumed; SMILES CC[C@H](C)[C@H](NC(=O)[C@H](Cc1ccccc1)NC(=O)[C@@H]1CCCN1C(=O)[C@H](CCCCN)NC(=O)[C@H](CCCCN)NC(=O)[C@H](Cc1ccccc1)NC(=O)[C@H](Cc1ccccc1)NC(=O)[C@@H](CCCCN)NC(=O)[C@@H](N)Cc1c(C)cc(O)cc1C)C(=O)N[C@@H](CC(C)C)C(=O)O) [[Ile^9]PK20, analogue of PK20 with Ile instead of Tle at position 9] | 44160 ± 990 | 88.32 | 43270 ± 1180 | 86.54 | 49710 ± 2240 | 99.41 | 51870 ± 400 | 103.74 | 49040 ± 1030 | 9630 ± 110 | 19.25 | 88.79 | 44390 ± 4480 | 52.25 | 26120 ± 1520 | 117.7 | 37.13 | 18560 ± 590 | 11.23 | 5610 ± 1830 | binding at NTS1 neurotensin receptor relative to PK20 [7]: reduced binding; binding at mu opioid receptor relative to PK20 [8]: reduced binding; extent of damage to the CA1 region of the hippocampus ([9]; dose 25 ng/mL): 8.53% ± 2.65; extent of damage to the CA1 region of the hippocampus ([9]; dose 50 ng/mL): 19.04% ± 8.52; extent of damage to the CA1 region of the hippocampus ([9]; dose 100 ng/mL): 8.62% ± 0.62; half-life (t1/2) in 1M NaOH [4]: 4.69 h; EC50 [5]: 1240 nM; Concentration Found (Mean ± SD) [6, 17]: 31390 ± 270 ng/mL; Recovery [6, 17]: 62.79%; Concentration Found (Mean ± SD) [6, 18]: 8240 ± 6690 ng/mL; Recovery [6, 18]: 16.48%
